Test results from ChEMBL document CHEMBL3232866, “Design of novel potent antihyperlipidemic agents with antioxidant/anti-inflammatory properties: exploiting phenothiazine's strong antioxidant activity” (J Med Chem, 2014).
Calls of active or inactive are those of the source. No cut-off for these calls is given here.

Assays:
[1] = Antioxidant activity in rat liver microsome membrane assessed as inhibition of lipid peroxidation after 45 mins by TBARS-based spectrophotometric assay; type: functional, microsomes
[2] = tested on: Mus musculus; test: Antidyslipidemic activity in chronic high-fat diet (2.5 w/w cholesterol, 0.5% w/w cholic acid, 10% w/w peanut oil) fed SKH-2 mouse assessed as decrease in LDL level in plasma at 56 umol/kg, ip bid for 21 days; type: functional; details: SKH-2, Plasma, 504 h
[3] = tested on: Mus musculus; test: Effect on food intake in chronic high-fat diet (2.5 w/w cholesterol, 0.5% w/w cholic acid, 10% w/w peanut oil) fed SKH-2 mouse at 56 umol/kg, ip bid for 30 days; type: ADME, organism-based; details: in vivo, 720 h
[4] = tested on: Mus musculus; test: Effect on body weight in chronic high-fat diet (2.5 w/w cholesterol, 0.5% w/w cholic acid, 10% w/w peanut oil) fed SKH-2 mouse at 56 umol/kg, ip bid for 30 days; type: ADME, organism-based; details: in vivo, 720 h
[5] = tested on: Radical scavenging activity; test: Antioxidant activity assessed as DPPH radical scavenging activity after 30 mins; type: functional
[6] = tested on: Mus musculus; test: Antidyslipidemic activity in chronic high-fat diet (2.5 w/w cholesterol, 0.5% w/w cholic acid, 10% w/w peanut oil) fed SKH-2 mouse assessed as increase in HDL level in plasma at 56 umol/kg, ip bid for 30 days measured on day 30 relative to control; type: functional
[7] = tested on: Mus musculus; test: Effect on blood glucose level in chronic high-fat diet (2.5 w/w cholesterol, 0.5% w/w cholic acid, 10% w/w peanut oil) fed SKH-2 mouse at 56 umol/kg, ip bid for 30 days; type: ADME, organism-based; details: in vivo, 720 h
[8] = tested on: Mus musculus; test: Antidyslipidemic activity in chronic high-fat diet (2.5 w/w cholesterol, 0.5% w/w cholic acid, 10% w/w peanut oil) fed SKH-2 mouse assessed as HDL/LDL ratio in plasma at 56 umol/kg, ip bid for 30 days measured on day 30 (reference value: 0.2 no unit); type: functional
[9] = target: T1, Squalene synthase (Rattus norvegicus, UniProt Q02769); test: (§1) Inhibition of squalene synthase in rat liver microsomes assessed as decrease in conversion of [3H]FPP to squalene
T1 sequence (Q02769 whole entry): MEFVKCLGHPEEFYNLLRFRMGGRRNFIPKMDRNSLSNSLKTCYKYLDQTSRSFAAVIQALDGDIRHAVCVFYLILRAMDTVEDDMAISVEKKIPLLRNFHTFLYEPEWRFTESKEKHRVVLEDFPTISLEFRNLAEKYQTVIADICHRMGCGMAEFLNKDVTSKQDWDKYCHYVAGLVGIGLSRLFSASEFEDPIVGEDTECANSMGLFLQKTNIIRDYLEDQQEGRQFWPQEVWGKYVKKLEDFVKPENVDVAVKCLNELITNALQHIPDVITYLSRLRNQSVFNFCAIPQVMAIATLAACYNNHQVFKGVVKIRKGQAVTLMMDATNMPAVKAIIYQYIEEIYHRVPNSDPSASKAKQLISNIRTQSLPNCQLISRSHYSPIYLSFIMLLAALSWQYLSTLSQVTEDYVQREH

[10] = target: T2, Squalene synthase (Rattus norvegicus) (UniProt Q02769); test: as §1
T2 sequence (whole entry): T1 sequence (Q02769 whole entry)

[11] = target: T3, Prostaglandin G/H synthase 1 (Bos taurus) (UniProt O62664); test: Inhibition of bovine COX-1 assessed as PGF2-alpha formation using arachidonic acid as substrate at 20 uM by enzyme immunoassay
T3 sequence (whole entry): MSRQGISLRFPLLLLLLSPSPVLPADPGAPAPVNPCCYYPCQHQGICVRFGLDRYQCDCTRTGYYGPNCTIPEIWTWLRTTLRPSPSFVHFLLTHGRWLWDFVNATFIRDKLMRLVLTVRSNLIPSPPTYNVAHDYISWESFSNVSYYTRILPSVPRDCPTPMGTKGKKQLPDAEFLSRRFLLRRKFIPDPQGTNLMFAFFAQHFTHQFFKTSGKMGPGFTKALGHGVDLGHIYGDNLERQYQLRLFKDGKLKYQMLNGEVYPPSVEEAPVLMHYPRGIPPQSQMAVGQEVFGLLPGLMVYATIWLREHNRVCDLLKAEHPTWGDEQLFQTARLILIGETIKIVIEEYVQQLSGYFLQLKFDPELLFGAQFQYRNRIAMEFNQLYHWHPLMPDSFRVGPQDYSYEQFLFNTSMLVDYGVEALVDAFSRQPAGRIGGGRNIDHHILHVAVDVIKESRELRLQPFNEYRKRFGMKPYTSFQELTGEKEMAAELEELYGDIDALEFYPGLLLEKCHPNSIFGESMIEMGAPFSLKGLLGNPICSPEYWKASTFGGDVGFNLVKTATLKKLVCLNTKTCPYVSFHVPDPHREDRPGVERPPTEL

[12] = tested on: Mus musculus; test: Antidyslipidemic activity in chronic high-fat diet (2.5 w/w cholesterol, 0.5% w/w cholic acid, 10% w/w peanut oil) fed SKH-2 mouse assessed as increase in HDL level in plasma at 56 umol/kg, ip bid for 30 days measured on day 30 relative to day 0; type: functional
[13] = tested on: Radical scavenging activity; test: Antioxidant activity assessed as DPPH radical scavenging activity up to 50 uM measured within 15 mins; type: functional
[14] = tested on: Mus musculus; test: Antidyslipidemic activity in chronic high-fat diet (2.5 w/w cholesterol, 0.5% w/w cholic acid, 10% w/w peanut oil) fed SKH-2 mouse assessed as decrease in total cholesterol level in plasma at 56 umol/kg, ip bid for 21 days; type: functional; details: SKH-2, Plasma, 504 h

IC50 [1]: 0.98 µM | IC50 [5]: 77 µM | IC50 [9]: 3.6 µM | inhibition [10]: Dose-dependent effect | inhibition [11]: 67%
Structure (SMILES): CN1CC(O)(c2ccc3c(c2)Nc2ccccc2S3)Sc2ccccc21 (centres undefined)
inhibition in vivo at 56 µmol/kg [2]: 80% | Activity [3]: Non-toxic | Activity [4]: Non-toxic | Activity [6]: 32% | Activity [7]: Non-toxic | Ratio [8]: 1.3 | Activity [12]: 100% | Activity [13]: Active | inhibition in vivo at 56 µmol/kg [14]: 48%
